# Molecular target: hAMY1R (Homo sapiens, UniProt O60894+P30988)
# Assay: Whole-cell competition binding, hAMY1R
# Parameters: expressed in transfected cells; host or cells: BHK tk-ts 13, transient co-transfection (FuGENE 6)
# Settings: IC50 for the CTR divided by that of the AMYR, human receptors
# hAMY1R, sequence (P30988 25-474): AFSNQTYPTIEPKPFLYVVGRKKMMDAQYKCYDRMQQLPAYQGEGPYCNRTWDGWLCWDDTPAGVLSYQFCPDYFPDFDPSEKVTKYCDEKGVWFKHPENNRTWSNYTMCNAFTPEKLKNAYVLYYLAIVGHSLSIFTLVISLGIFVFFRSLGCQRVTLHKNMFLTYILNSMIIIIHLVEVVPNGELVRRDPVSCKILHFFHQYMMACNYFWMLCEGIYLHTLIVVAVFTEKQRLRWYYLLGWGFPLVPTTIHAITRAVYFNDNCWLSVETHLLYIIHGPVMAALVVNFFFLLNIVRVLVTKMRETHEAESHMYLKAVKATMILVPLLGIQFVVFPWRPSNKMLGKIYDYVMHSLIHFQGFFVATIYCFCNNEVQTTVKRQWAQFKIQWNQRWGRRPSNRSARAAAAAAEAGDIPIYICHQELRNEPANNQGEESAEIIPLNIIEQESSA
# hAMY1R, sequence (O60894 27-148 partner): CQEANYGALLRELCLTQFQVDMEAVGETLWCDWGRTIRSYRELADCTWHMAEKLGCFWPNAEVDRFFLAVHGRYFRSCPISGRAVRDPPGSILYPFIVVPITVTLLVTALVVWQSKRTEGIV
smiles,measurement,value
CC[C@H](C)[C@H](NC(=O)[C@H](C)NC(=O)CNC(=O)[C@H](Cc1ccccc1)NC(=O)[C@H](CC(N)=O)NC(=O)[C@@H]1CCCN1C(=O)[C@H](CO)NC(=O)[C@H](CO)NC(=O)[C@H](Cc1c[nH]cn1)NC(=O)[C@H](CCCNC(=N)N)NC(=O)[C@H](CC(C)C)NC(=O)[C@H](Cc1ccccc1)NC(=O)[C@H](CC(=O)O)NC(=O)[C@H](C)NC(=O)[C@H](CC(C)C)NC(=O)[C@H](CCCNC(=N)N)NC(=O)[C@H](CCC(N)=O)NC(=O)[C@@H](NC(=O)[C@H](C)NC(=O)[C@@H]1CSSC[C@H](NC(=O)[C@@H](N)CCCCNC(=O)CC[C@H](NC(=O)CC[C@H](NC(=O)CCCCCCCCCCCCCCCCCCC(=O)O)C(=O)O)C(=O)O)C(=O)N[C@@H](CC(N)=O)C(=O)N[C@@H]([C@@H](C)O)C(=O)N[C@@H](C)C(=O)N[C@@H]([C@@H](C)O)C(=O)N1)[C@@H](C)O)C(=O)N1CCC[C@H]1C(=O)N[C@@H](CO)C(=O)N[C@@H](CO)C(=O)N[C@H](C(=O)N[C@@H](CC(N)=O)C(=O)N[C@H](C(=O)NCC(=O)N[C@@H](CO)C(=O)N[C@@H](CCCNC(=N)N)C(=O)N[C@H](C(=O)N[C@@H](Cc1ccc(O)cc1)C(N)=O)[C@@H](C)O)C(C)C)[C@@H](C)O [NN1213],"Ratio CTR/AMY1R (human, binding)",120
